# From BindingDB's records for doi:10.1016/j.ejmech.2020.112522 (Xuzhou Medical University, 2020)
# Key:
# [1] = Inhibition of wild type EGFR in human MCF7 cells assessed as cell growth inhibition measured after 72 hrs by Celltiter-Glo luminescent cell viability assay
# [2] = Inhibition of wild type EGFR in human HT-29 cells assessed as cell growth inhibition measured after 72 hrs by Celltiter-Glo luminescent cell viability assay
# [3] = Inhibition of wild type EGFR in human A-431 cells assessed as cell growth inhibition measured after 72 hrs by Celltiter-Glo luminescent cell viability assay
# [4] = Inhibition of wild type EGFR in human HepG2 cells assessed as cell growth inhibition measured after 72 hrs by Celltiter-Glo luminescent cell viability assay
smiles,measurement,setting,value
C=CCSSCCC(=O)OCCCOc1cc2ncnc(Nc3cccc(Br)c3)c2cc1OC,IC50,[1],7.31 µM
same,IC50,[2],> 10 µM
same,IC50,[3],6.7 µM
same,IC50,[4],> 10 µM
